Entries after “also recorded” stand apart in the source; their conditions may differ.
Legend:
[1] = test system: males with psychogenic or neurogenic dysfunction, severe atherosclerosis not involved; details: cited from earlier work; for erection on intracavernosal injection: severe atherosclerosis not involved
[2] = test system: males who are impotent due to severe atherosclerosis; details: cited from earlier work; for efficacy in impotence due to severe atherosclerosis: in vivo
human males [3] = details: cited from earlier work; for priapism: treatment of impotence
[4] = aqueous composition; cited from earlier work
[5] = test system: human suffering from impotence, of which severe atherosclerosis is a cause; assay: Intracavernosal injection coupled with sexual stimulation in males with impotence caused by severe atherosclerosis; assay type: in vivo
Method: Thus, between about 0.1 ml and about 5 ml, and preferably about 1 ml, of a physiologically acceptable composition comprising one of VIP or PHM or a mixture thereof and an alpha-adrenergic blocker is administered as a bolus by intracavernosal injection during, or prior to the initiation of, sexual stimulation and preferably with the penis constricted at its base for between about 1 minute and about 15 minutes (preferably about 5 minutes-about 10 minutes) after the injection.

human males [6] = details: in vivo
Method: Priapism is a serious, deleterious side effect of treatment of erectile insufficiency with these drugs. Beyond the embarrassment that may be caused for some men, priapism is usually painful, irreversibly damages erectile tissue, and, to be relieved, requires bleeding or pharmacological intervention (e.g., injection of a sympathomimetic drug such as adrenaline).
Preferably 1 ml of the preferred composition is administered as a bolus by injection into a corpus cavernosum while the penis is constricted at its base with a tourniquet. About 5-10 minutes after the injection, the tourniquet is released and, if not already started before the tourniquet is released, sexual stimulation is begun.

normal male = details: cited from earlier work

For COc1ccc(Cc2nccc3cc(OC)c(OC)cc23)cc1OC [papaverine], the “erection on intracavernosal injection” value [1] is listed as “cause an erection sufficient for vaginal penetration”, the “efficacy in impotence due to severe atherosclerosis” value (“efficacy in impotence due” for short) [2] is listed as “ineffective; also recorded: not susceptible to treatment” and the pain after injection (human males [3]; even if priapism does not occur) is listed as “painful, burning sensation in the first two or so minutes after the injection”. The fibrosis (human males [3]; repeated use) was “undesirable, extensive intracavernous fibrosis” and the priapism (human males [3]) was “often results in priapism”.
In the case of CC(COc1ccccc1)N(CCCl)Cc1ccccc1 (centres unmarked) [phenoxybenzamine], the “erection on intracavernosal injection” value [1] is listed as “cause an erection sufficient for vaginal penetration”, the “efficacy in impotence due” value [2] is listed as “not susceptible to treatment” and the priapism (human males [3]) is listed as “often results in priapism”.
For Cc1ccc(N(CC2=NCCN2)c2cccc(O)c2)cc1 [phentolamine], the duration of erection ([1]; compared with papaverine or phenoxybenzamine) is listed as “significantly shorter duration”, the “erection on intracavernosal injection” value [1] is listed as “causes an erection sufficient for vaginal penetration” and the “efficacy in impotence due” value [2] is listed as “not susceptible to treatment”. The stability in solution [4] was “lability”.
For “human vasoactive intestinal peptide [VIP]”, the “erection sufficient for vaginal penetration” value ([5]; 30 μg neuropeptide together with alpha-adrenergic blocker, in most cases) was “sufficient to induce an erection sufficient for vaginal penetration”, the “treatment of impotence, neuropeptide in combination with an alpha-adrenergic blocker” value ([5]; intracavernosal injection with alpha-adrenergic blocker such as phentolamine or prazosin, coupled with sexual stimulation) was “treated effectively” and the “induction of erections, neuropeptide alone” value ([5]; without alpha-adrenergic blocker) was “not effective”. The “priapism or burning pain on induction of an erection” value (human males [6]) was “does not entail priapism or the burning pain”, the “erectile response with sexual stimulation” value (normal male; as little as 1 μg (at 1 μg/ml of diluent), visual and/or vibration stimulation) was “facilitates full erection” and the “erectile response without sexual stimulation” value (normal male; up to 20 μg (at 20 μg/ml of diluent), no sexual stimulation) was “only slight swelling (slight tumescence) of the penis but not an erection”. For the same compound, the “induction of erections, VIP alone coupled with sexual stimulation” value ([2]; impotent due to severe atherosclerosis) was “does not induce erections” and the “systemic side effects due to administration” value (human males [3]; background statement) was “flushing of the skin and hypotension”.

Reference: patent publication US5236904A, “Erection-inducing methods and compositions” (Senetek, plc, priority 1989, dated 1993)
